Several values for one entry are separate records, joined by “and”; a condition that tells them apart may be missing. Identical values can stand only once.
Assays:
Format in all cases: in vivo, human
[1] = tested on: serum alkaline phosphatase (S-ALP); assay: S-ALP analysis in prostate cancer patients (clinical study CS21); details: Leuprolide 7.5 mg
Experimental: Patients with histologically confirmed adenocarcinoma of the prostate (all stages), for whom androgen deprivation therapy was indicated were recruited. Baseline characteristics were well balanced between groups. Approximately half of patients had locally advanced (29.2%) or metastatic (20.5%) disease at baseline. […] Patients receiving leuprolide could also receive bicalutamide for clinical flare protection. The S-ALP levels were measured in each patient at various time points, by taking a blood sample and analyzing for S-ALP. S-ALP levels were measured using a standardized colorimetric assay based on the p-nitrophenyl phosphate AMP buffer method. The normal range for S-ALP is 44-147 IU/L. The S-ALP values in non-metastatic patients serve as controls. An ANOVA analysis with treatment and day as factors and baseline value as covariate was used to determine between treatment differences at Day 364. A repeated measures analysis (incorporating all time points from Day 112) with treatment and day as factors and baseline value as covariate was used to assess between treatment differences from Day 112 to Day 364.

[2] = tested on: prostate-specific antigen (PSA); assay: PSA failure in prostate cancer patients (clinical study CS21); details: for proportion of PSA failures: leuprolide 7.5 mg
Experimental: For this analysis, PSA failure (a secondary endpoint) was defined as two consecutive increases in PSA of 50% and 5 ng/mL compared with nadir. The time to PSA failure was defined as the number of days from first dosing to where an increase in serum PSA of 50% from nadir and 5 ng/mL, measured on two consecutive occasions at least two weeks apart, was noted. The second occasion was the time point of meeting the criterion. PSA failure rates were also analyzed by disease stage and baseline PSA level.
(§1) The secondary efficacy endpoints were: the proportion of patients with testosterone surge during the first 2 weeks of treatment; the proportion of patients with testosterone level ≦0.5 ng/mL at day 3; the percentage change in PSA from baseline to day 28; the probability of testosterone ≦0.5 ng/mL from day 56 through day 364; the levels of serum testosterone, LH, FSH and PSA over time through the study; the time to PSA failure, defined as two consecutive increases of 50%, and at least 5 ng/mL as compared to nadir; degarelix concentration over the first month and trough levels at day 308 and 336; the frequency and size of testosterone increases at day 255 and/or 259 compared to the testosterone level at day 252; the quality of life on days 0, 28, 84, 168 and end of study visit; the frequency and intensity of hot flushes experienced (scored daily from study start until end of study visit). In addition, two further secondary endpoints were added: the probability of sufficient testosterone response from day 28 through day 364 (a patient was considered to have insufficient testosterone response if they had one testosterone value >1.0 ng/mL or two consecutive testosterone values >0.5 ng/mL at day 28 onwards); and the percentage change in PSA from baseline to day 14.
The secondary endpoints, probability of testosterone ≦0.5 ng/mL from day 56 through day 364, time to PSA failure, and probability of sufficient testosterone response from day 28 through day 364 were analyzed by the Kaplan-Meier method.

[3] = tested on: testosterone; details: leuprolide 7.5 mg group
Experimental: The study also evaluated the pharmacokinetics of the degarelix dosing regimens investigated. Finally, the study examined the effects of using the degarelix treatment on patients suffering from different stages of cancer. […] The primary efficacy endpoint was the probability of testosterone levels remaining ≦0.5 ng/mL from day 28 through day 364. […] The primary efficacy endpoint was analyzed for both the ITT and PP analysis sets, with the ITT analysis set considered primary. The primary efficacy endpoint was analyzed using the Kaplan Meier method. For each of the three treatment groups, testosterone response rates with 95% confidence interval (CI) were calculated by log-log transformation of survivor function. […] All secondary efficacy endpoints were analyzed for both the ITT and PP analysis sets, unless otherwise stated. […] The percentage change in PSA from baseline to day 28 endpoint was analyzed by a Wilcoxon test.

[4] = tested on: prostate-specific antigen (PSA); assay: Serum PSA level change in prostate cancer patients (clinical study CS21); details: leuprolide 7.5 mg patients who did not receive anti-androgen therapy
Experimental: All secondary efficacy endpoints were analyzed for both the ITT and PP analysis sets, unless otherwise stated. The proportion of patients with testosterone surge during the first 2 weeks of treatment was analyzed using Fisher's exact test. […] The percentage change in PSA from baseline to day 28 endpoint was analyzed by a Wilcoxon test.

[5] = tested on: luteinizing hormone (LH); assay: Serum LH levels over time (clinical study CS21); details: leuprolide 7.5 mg group
Experimental: (§2) The study also investigated whether degarelix is safe and effective with respect to achieving and maintaining testosterone suppression to castrate levels, evaluated as the proportion of patients with testosterone suppression ≦0.5 ng/mL during 12 months of treatment. […] The study also evaluated the pharmacokinetics of the degarelix dosing regimens investigated. Finally, the study examined the effects of using the degarelix treatment on patients suffering from different stages of cancer.
(§3) Patients in two treatment groups received a degarelix starting dose of 240 mg at a concentration of 40 mg/mL (240@40) on day 0 administered as two equivalent subcutaneous (s.c.) injections of 120 mg each. Thereafter, patients received 12 additional single s.c. degarelix doses of either 80 mg at a concentration of 20 mg/mL (80@20: degarelix 240/80 mg group) or 160 mg at a concentration of 40 mg/mL (160@40: degarelix 240/160 mg group) administered s.c. every 28 days.
as §1

[6] = tested on: follicle stimulating hormone (FSH); assay: Serum FSH levels over time (clinical study CS21); details: leuprolide 7.5 mg group
Experimental: as §2, §3, §1

For `CCNC(=O)[C@@H]1CCCN1C(=O)[C@H](CCCNC(=N)N)NC(=O)[C@H](CC(C)C)NC(=O)[C@@H](CC(C)C)NC(=O)[C@H](Cc1ccc(O)cc1)NC(=O)[C@H](CO)NC(=O)[C@H](Cc1c[nH]c2ccccc12)NC(=O)[C@H](Cc1c[nH]cn1)NC(=O)[C@@H]1CCC(=O)N1` [leuprolide, reference compound], the “S-ALP mean change from baseline” value ([1]; Localized, Day 112) was “+5 IU/L”, the “S-ALP mean change from baseline” value ([1]; Localized, Day 224) was “+7 IU/L” and the “S-ALP mean change from baseline” value ([1]; Localized, Day 364) was “+9 IU/L”. For the same molecule, the “S-ALP mean change from baseline” value ([1]; Locally advanced, Day 112) was −1 IU/L, the “S-ALP mean change from baseline” value ([1]; Locally advanced, Day 224) was −1 IU/L and the “S-ALP mean change from baseline” value ([1]; Locally advanced, Day 364) was “+6 IU/L”. For the same molecule, the “S-ALP mean change from baseline” value ([1]; Metastatic (Hb < 130 g/L), Day 112) was −30 IU/L, the “S-ALP mean change from baseline” value ([1]; Metastatic (Hb < 130 g/L), Day 224) was −70 IU/L and the “S-ALP mean change from baseline” value ([1]; Metastatic (Hb < 130 g/L), Day 364) was −10 IU/L. The “S-ALP mean change from baseline” value ([1]; Metastatic, Day 112) was −20 IU/L, the “S-ALP mean change from baseline” value ([1]; Metastatic, Day 224) was −50 IU/L and the “S-ALP mean change from baseline” value ([1]; Metastatic, Day 364) was 0 IU/L. For the same molecule, the “S-ALP mean change from baseline” value ([1]; baseline PSA 10-20 ng/mL, Day 112) was “+5 IU/L”, the “S-ALP mean change from baseline” value ([1]; baseline PSA 10-20 ng/mL, Day 224) was “+8 IU/L” and the “S-ALP mean change from baseline” value ([1]; baseline PSA 10-20 ng/mL, Day 364) was “+8 IU/L”. For the same molecule, the “S-ALP mean change from baseline” value ([1]; baseline PSA 20-50 ng/mL, Day 112) was “+5 IU/L”, the “S-ALP mean change from baseline” value ([1]; baseline PSA 20-50 ng/mL, Day 224) was “+8.5 IU/L” and the “S-ALP mean change from baseline” value ([1]; baseline PSA 20-50 ng/mL, Day 364) was “+11 IU/L”. For the same molecule, the “S-ALP mean change from baseline” value ([1]; baseline PSA < 10 ng/mL, Day 112) was “+4.5 IU/L”, the “S-ALP mean change from baseline” value ([1]; baseline PSA < 10 ng/mL, Day 224) was “+6 IU/L” and the “S-ALP mean change from baseline” value ([1]; baseline PSA < 10 ng/mL, Day 364) was “+7.5 IU/L”. For the same molecule, the “S-ALP mean change from baseline” value ([1]; baseline PSA > 50 ng/mL, Day 112) was −40 IU/L, the “S-ALP mean change from baseline” value ([1]; baseline PSA > 50 ng/mL, Day 224) was −60 IU/L and the “S-ALP mean change from baseline” value ([1]; baseline PSA > 50 ng/mL, Day 364) was “+10 IU/L”. The “probability of completing the study without experiencing PSA failure by day 364” value ([2]; leuprolide 7.5 mg group) was 85.9% and ~85.8%, the “proportion of PSA failures” value ([2]; patients with baseline PSA>50 ng/mL) was 40.0% and the “proportion of PSA failures” value ([2]; patients with metastatic disease at baseline) was 36.2%. The “Kaplan-Meier estimate of the probability of testosterone ≦0.5 ng/mL from day 28 to day 364” value [3] was 96.4%, the “patients exhibiting testosterone suppression on day 3” value [3] was “no patients” and the “overall proportion of patients with testosterone ≦0.5 ng/mL from day 28 to day 364” value ([3]; observed cases analysis) was 96.0%. The “PSA median percentage reduction from baseline” value ([4]; day 14) was 15.3%, the “PSA median percentage reduction from baseline” value ([4]; day 28) was 61.7% and the “median LH level” value ([5]; by day 56, remaining until day 364) was 0.035 IU/L. For the same molecule, the “increase of median LH from baseline” value ([5]; day 1) was greater than 400%, the “median LH level, peak” value ([5]; day 1) was 31.0 IU/L and the FSH level ([6]; by day 14) was 2.0 IU/L. The “FSH level, peak” value ([6]; day 1) was 22.5 IU/L, the “increase of FSH from baseline” value ([6]; day 1) was 146% and the “Median FSH plateau” value ([6]; from around day 56 until day 364) was “approximately 4.40 IU/L”.

From patent publication US9877999B2, “Methods for treating metastatic stage prostate cancer” (Ferring International SA, priority 2008, dated 2018)
